Assay results as given in patent US11446269B2, “Methods of reducing or preventing oxidation of small dense LDL or membrane polyunsaturated fatty acids” (Amarin Pharmaceuticals Ireland Limited, priority 2014, dated 2022).

Assays:
[1] = Glucose-induced membrane lipid peroxidation (LOOH, CHOD-iodide assay) in DLPC/cholesterol multilamellar vesicles (Example 4); assay type: biochemical
Procedure: Vitamin E (α-tocopherol) was also purchased from Sigma-Aldrich and prepared in ethanol at 1.0 mM (ε=3.06×10^4 M^−1 cm^−1 at 294 nm) just prior to experimental use. […] All test compounds were further diluted in ethanol or aqueous buffer as needed. Glucose was prepared in saline buffer (0.5 mM HEPES, 154 mM NaCl, pH 7.3) at 11.0 mM (200 mg/dL). CHOD-iodide color reagent (stock) was prepared, with slight modification, as described by from El-Saadani et al. (J. […] Samples were shell-dried under nitrogen gas and placed under vacuum for 1 h to remove residual solvent. […] Lipid suspensions were then vortexed for 3 min at ambient temperature to form MLVs. All MLV samples were subjected to time-dependent autoxidation by incubating at 37° C. in an uncovered, shaking water bath. This method allows lipid peroxidation to occur gradually without requiring the use of exogenous initiators. Small aliquots (5-100 μL) of each sample were removed, immediately following MLV preparation (0 hour) and after exposing samples to oxidative conditions for 72 or 96 hour, and combined with 1.0 mL of activated CHOD-iodide color reagent. Aliquot volume was reduced with each successive time point to ensure that spectrophotometric readings were within the optimal adsorption range. Test samples were covered and incubated in darkness at room temperature for at least 4 hr. Sample absorbances were then measured against a CHOD blank at 365 nm using a Beckman DU-640 spectrophotometer. The CHOD colorimetric assay is based on the oxidation of iodide (I^−) by lipid hydroperoxide (LOOH) to form triiodide (I3^−), the quantity of which is directly proportional to the amount of LOOH present in the lipid sample. The molar absorptivity (c) of I3^− is 2.46×10^4 M^−1 cm^−1 at 365 nm. […] The concentration of glucose selected was consistent with previous experimental studies of hyperglycemia under controlled laboratory conditions or observed in well-defined animal models of Type II diabetes following a glucose challenge. […] Values in FIG. 1 are mean±S.D. (N=6). EPA inhibited the peroxidative effects of glucose by 88% and 86% at 72 and 96 hours, respectively, which was highly significant (p<0.001) as compared to glucose treatment alone. […] Overall ANOVA—0 hour data: p=0.6655, F=0.4185; 72 hour data: p<0.0001, F=428.72; 96 hour data: p<0.0001, F=322.01.

HUVECs = assay: NO and ONOO^− release from HUVECs pretreated with agents, then oxLDL (Example 11, objective 1); assay type: cell-based, human; details: agents 10 μM, 30 min pretreatment, then oxLDL 11 mg/dL up to 3 hr
Procedure: Human umbilical vein endothelial cells (HUVECs) were obtained from healthy, female donors and isolated into primary, proliferating cell cultures (Clonetics, San Diego, Calif.). […] The confluent cells (4 to 5×10^5 cells/35 mm dish) were plated with minimum essential medium containing 3 mM L-arginine and 0.1 mM BH4 [(6R)-5,6,7,8-tetrahydrobiopterin]. Before experimental use, the cells (from second or third passage) were rinsed twice with Tyrode-HEPES buffer with 1.8 mM CaCl2.
Venous blood was collected from healthy volunteers into vacutainer tubes containing sodium EDTA. […] The LDL subfraction was retained for additional experimentation. Plasma and lipoprotein fractions were maintained at 4° C. and protected from excessive exposure to light. Prior to oxidation experiments, EDTA was removed from the lipoprotein fraction using PD-10 desalting columns (GE Healthcare, Piscataway N.J.). After equilibration of the column with phosphate buffered saline (PBS), 2.5 mL of the lipoprotein fraction was loaded on the column and the flow-through discarded. The lipoprotein was then eluted with 3 mL of PBS. The LDL fractions were further diluted with PBS to obtain a 100 μg/mL apoB100 concentration.
LDL underwent oxidation following the addition of 10 μM CuSO4. To measure oxidation, 100 μL aliquots were removed and combined with 1.0 mL thiobarbituric acid (0.5%), 10 μL trichloroacetic acid (5%), 10 μL BHT (5 mg/mL in methanol), and 10 μL EDTA (5 mM). […] Sample TBARS concentrations were determined spectrophotometrically by measuring sample absorbances against a standard curve derived from the hydrolysis of 1,1,3,3-tetramethoxypropane.
Concurrent measurements of NO and ONOO^− were performed with tandem electrochemical nanosensors combined into one working unit with a total diameter of 200-400 nm. […]
The amperometric method (with a response time of 0.1 ms) provides a quantitative signal (current) that is directly proportional to changes (from basal levels) in NO or ONOO^− concentration. […] Basal NO or ONOO^− levels were measured by differential pulse voltammetry in separate experiments. […]

Row | SMILES | antioxidant effect on glucose-induced LOOH formation ([1]; 1.0 μM, glucose 200 mg/dL, 96 hours) | effect on LOOH formation / lipid peroxidation ([1]; 72- and 96-hour time points, 1:30 drug-to-phospholipid mole ratio, glucose 200 mg/dL) | effect on membrane LOOH formation ([1]; tested at 1.0 and 5.0 μM, glucose-treated) | NO/ONOO^− Ratio (HUVECs) | NO release (HUVECs; calcium ionophore) | NO/ONOO^− Ratio (HUVECs; listed as niacin)
1 | CC/C=C\C/C=C\C/C=C\C/C=C\C/C=C\CCCC(=O)O [EPA, cis-5,8,11,14,17-eicosapentaenoic acid] | potent antioxidant effects | significantly inhibited LOOH formation | inhibit membrane LOOH formation in a dose-dependent manner |  |  | 
2 | O=C(O)c1cccnc1 [Niacin, nicotinic acid] |  |  |  | 1.45 ± 0.14 | 346 ± 17 | 1.45±0.14
